Laboratory results published in US20250154141A1 (University of Florida Research Foundation, Incorporated, priority 2021, published 2025).
Like-named read-outs stand apart in the source and are kept apart here.

How the values were obtained:
Assay type in all cases: cell-based
[1] = tested on: MOLT-4; assay: Cell viability assay (MTS) in MOLT-4 cells
Protocol: (§1) Acute lymphoblastic leukemia cells (MOLT-4 and RS4; 11) were incubated with increasing concentrations of Bcl-xL degraders for 48 h. Cell viability was measured by tetrazolium-based MTS assay.

[2] = tested on: human platelets; assay: Platelet toxicity assay (MTS viability); details: for IC50: 48 h, human platelets; for Platelets/MOLT-4 IC50 Fold change / PLT/MOLT-4 IC50 Fold Change: ratio of platelet IC50 to MOLT-4 IC50
Protocol: Platelet-rich plasma (PRP) was purchased from Life South Community Blood Centers (Gainesville, FL, USA). PRP was transferred into a 50 mL tube containing 5 mL of the acid citrate buffer (Cat. No. sc-214744, Santa Cruz Biotechnology). To prevent clotting, prostaglandin E1 (PGE1, Cat. No. sc-201223A, Santa Cruz Biotechnology, Dallas, TX, USA) and apyrase (Cat. No. A6237, Sigma-Aldrich, St. Louis, MO, USA) were added to final concentrations of […] and 0.2 U/mL, respectively. After gently mixing the solution, platelets were pelleted by centrifugation at 1200 g for 10 min without break. Pelleted platelets were gently washed without disturbing platelets using 2 mL of HEPES Tyrode's buffer (Cat. No. PY-921WB, Boston BioProducts, Ashland, MA, USA) containing […] PGE1 and 0.2 U/mL apyrase. After washing, pellets were gently suspended in 10 mL of HEPES Tyrode's buffer containing […] PGE1 and 0.2 U/mL apyrase. Then, the platelet number was counted using a HEMAVET 950FS hematology analyzer (Drew Scientific, Inc., Oxford, CT, USA). For viability assays, the platelet number was adjusted to 2×10^8/mL in HEPES Tyrode's buffer containing […] PGE1 and 0.2 U/mL apyrase. Each treatment was given in 2 mL of the platelet suspension in 15 mL polypropylene tubes. The tubes were placed on a rotating platform at room temperature, and the viability of platelets was measured after 48 h treatment by using the MTS reagent (Cat. No. G1111, Promega, Madison, WI, USA). The data were analyzed by the GraphPad Prism 7 software for the calculation of IC50 values.

[3] = tested on: RS4; 11; assay: Cell viability assay (MTS) in RS4; 11 cells; design: Anti-Cancer Activity IC50 (48 hr) RS4; 11: scale not given here
Protocol: as §1

[4] = Homo sapiens, MOLT-4, Table 2, 48 hr, MTS, read-out: Anti-Cancer Activity IC50 (48 hr) MOLT-4
[5] = Homo sapiens, MOLT-4, Table 3, 48 h, mean of two independent experiments in triplicates, read-out: MOLT-4 48 h IC50
[6] = Homo sapiens, Platelet, Table 3, mean of two independent experiments in triplicates, read-out: Platelets 48 h IC50
[7] = Homo sapiens, MOLT-4, Table 5, 48 h, read-out: MOLT-4 48 h IC50
[8] = Homo sapiens, Platelet, Table 5, read-out: Platelets 48 h IC50
[9] = Homo sapiens, RS4-11, Table 2, 48 hr, MTS, read-out: Anti-Cancer Activity IC50 (48 hr) RS4, 11
[10] = Homo sapiens, RS4-11, Table 5, 48 h, read-out: RS4 48 h IC50
[11] = Homo sapiens, Platelet, Table 4, read-out: Platelets 48 h IC50
[12] = Homo sapiens, Platelet, Table 6, 4 th time, read-out: Platelets 4 th time 48 h IC50
[13] = Homo sapiens, RS4-11, Table 4, 48 h, read-out: RS4 48 h IC50
[14] = Homo sapiens, MOLT-4, Table 4, 48 h, read-out: MOLT-4 48 h IC50

Row | Compound | IC50 [1, 4] [nM] | IC50 [1, 5] [nM] | IC50 [2, 6] [nM] | Platelets/MOLT-4 IC50 Fold change ([2]; Table 3) | IC50 [3, 9] [nM] | IC50 [2, 11] [nM] | PLT/MOLT-4 IC50 Fold Change ([2]; Table 4) | IC50 [3, 13] [nM] | other results
1 | Cc1ncsc1-c1ccc([C@H](C)NC(=O)[C@@H]2C[C@@H](O)CN2C(=O)[C@@H](NC(=O)CCCCCCC(=O)N2CCN(CC3(C)CCC(c4ccc(Cl)cc4)=C(CN4CCN(c5ccc(C(=O)NS(=O)(=O)c6ccc(N[C@H](CCN7CCCC7)CSc7ccccc7)c([N+](=O)[O-])c6)cc5)CC4)C3)CC2)C(C)(C)C)cc1 (stereo partly drawn) [Compound 38, (2S,4R)-1-((2S)-2-(8-(4-((4′-chloro-4-methyl-6-((4-(4-(((3-nitro-4-(((R)-1-(phenylthio)-4-(pyrrolidin-1-yl)butan-2-yl)amino)phenyl)sulfonyl)carbamoyl)phenyl)piperazin-1-yl)methyl)-2,3,4,5-tetrahydro-[1,1′-biphenyl]-4-yl)methyl)piperazin-1-yl)-8-oxooctanamido)-3,3-dimethylbutanoyl)-4-hydroxy-N—((S)-1-(4-(4-methylthiazol-5-yl)phenyl)ethyl)pyrrolidine-2-carboxamide] | < 20 | 17.6 | 3000 | 170 | – | – | – | – | Anti-Cancer Activity IC50 (48 hr) RS4; 11 ([3]; Table 2, 48 hr, MTS): + ++
2 | Cc1ncsc1-c1ccc([C@H](C)NC(=O)[C@@H]2C[C@@H](O)CN2C(=O)[C@@H](NC(=O)CCCCC(=O)N2CCC(C3CCN(CC4(C)CCC(c5ccc(Cl)cc5)=C(CN5CCN(c6ccc(C(=O)NS(=O)(=O)c7ccc(N[C@H](CCN8C[C@H]9C[C@@H]8CO9)CSc8ccccc8)c(S(=O)(=O)C(F)(F)F)c7)cc6)CC5)C4)CC3)CC2)C(C)(C)C)cc1 (stereo partly drawn) [Compound 69] | < 20 | – | – | – | < 20 | – | – | – | IC50 [1, 7]: 1.9 nM; IC50 [2, 8]: 157 nM; IC50 [3, 10]: 3.7 nM
3 | Cc1ncsc1-c1ccc([C@H](C)NC(=O)[C@@H]2C[C@@H](O)CN2C(=O)[C@@H](NC(=O)CCCCCCC(=O)N2CCN(C[C@]3(C)CCC(c4ccc(Cl)cc4)=C(CN4CCN(c5ccc(C(=O)NS(=O)(=O)c6ccc(N[C@H](CCN7C[C@H]8C[C@@H]7CO8)CSc7ccccc7)c(S(=O)(=O)C(F)(F)F)c6)cc5)CC4)C3)CC2)C(C)(C)C)cc1 [Compound 66] | < 20 | 2.3 | 853 | 370 | < 20 | 853 | 370 | 1.6 | IC50 [2, 12]: 853 nM; Platelets/MOLT-4 IC50 Fold change ([2]; Table 6): 370
4 | Cc1ncsc1-c1ccc([C@H](C)NC(=O)[C@@H]2C[C@@H](O)CN2C(=O)[C@@H](NC(=O)CCCCCNC(=O)c2ccc(N3CCN(CC4(C)CCC(c5ccc(Cl)cc5)=C(CN5CCN(c6ccc(C(=O)NS(=O)(=O)c7ccc(N[C@H](CCN8CCOCC8)CSc8ccccc8)c(S(=O)(=O)C(F)(F)F)c7)cc6)CC5)C4)CC3)cc2)C(C)(C)C)cc1 (stereo partly drawn) [Compound 12, (2S,4R)-1-((2S)-2-(6-(4-(4-((4′-chloro-4-methyl-6-((4-(4-(((4-(((R)-4-morpholino-1-(phenylthio)butan-2-yl)amino)-3-((trifluoromethyl)sulfonyl)phenyl)sulfonyl)carbamoyl)phenyl)piperazin-1-yl)methyl)-2,3,4,5-tetrahydro-[1,1′-biphenyl]-4-yl)methyl)piperazin-1-yl)benzamido)hexanamido)-3,3-dimethylbutanoyl)-4-hydroxy-N—((S)-1-(4-(4-methylthiazol-5-yl)phenyl)ethyl)pyrrolidine-2-carboxamide] | < 20 | 17.5 | 2160 | 123 | 20 to 100 | – | – | – | –
5 | Cc1ncsc1-c1ccc([C@H](C)NC(=O)[C@@H]2C[C@@H](O)CN2C(=O)[C@@H](NC(=O)CCCCCC(=O)N2CCN(CC[C@H](CSc3ccccc3)Nc3ccc(S(=O)(=O)NC(=O)c4ccc(N5CCN(CC6=C(c7ccc(Cl)cc7)CCC(C)(C)C6)CC5)cc4)cc3S(=O)(=O)C(F)(F)F)CC2)C(C)(C)C)cc1 [DT2216, reference compound] | – | – | – | – | – | – | >150 | – | IC50 ([1]; Table 4, 48 h, read-out: MOLT-4 48 h IC50): 50 to 80 nM; IC50 ([2]; Table 4, read-out: Platelets 48 h IC50): > 10000 nM; IC50 ([3]; Table 4, 48 h, read-out: RS4 48 h IC50): 180 to 230 nM
6 | Cc1ncsc1-c1ccc([C@H](C)NC(=O)[C@@H]2C[C@@H](O)CN2C(=O)[C@@H](NC(=O)CCCCCNC(=O)c2ccc(N3CCN(CC4(C)CCC(c5ccc(Cl)cc5)=C(CN5CCN(c6ccc(C(=O)NS(=O)(=O)c7ccc(N[C@H](CCN8CCOCC8)CSc8ccccc8)c(S(=O)(=O)C(F)(F)F)c7)cc6)CC5)C4)CC3)nc2)C(C)(C)C)cc1 (stereo partly drawn) [Compound 3] | < 20 | – | – | – | 20 to 100 | 4900 | 510 | 44.9 | IC50 [1, 14]: 9.6 nM
7 | Cc1ncsc1-c1ccc([C@H](C)NC(=O)[C@@H]2C[C@@H](O)CN2C(=O)[C@@H](NC(=O)CCCCCCC(=O)N2CCN(CC3(C)CCC(c4ccc(Cl)cc4)=C(CN4CCN(c5ccc(C(=O)NS(=O)(=O)c6ccc(N[C@H](CCN7CCC7)CSc7ccccc7)c([N+](=O)[O-])c6)cc5)CC4)C3)CC2)C(C)(C)C)cc1 (stereo partly drawn) [Compound 37, (2S,4R)-1-((2S)-2-(8-(4-((6-((4-(4-(((4-(((R)-4-(azetidin-1-yl)-1-(phenylthio)butan-2-yl)amino)-3-nitrophenyl)sulfonyl)carbamoyl)phenyl)piperazin-1-yl)methyl)-4′-chloro-4-methyl-2,3,4,5-tetrahydro-[1,1′-biphenyl]-4-yl)methyl)piperazin-1-yl)-8-oxooctanamido)-3,3-dimethylbutanoyl)-4-hydroxy-N—((S)-1-(4-(4-methylthiazol-5-yl)phenyl)ethyl)pyrrolidine-2-carboxamide] | < 20 | – | – | – | – | – | – | – | IC50 [1, 7]: 20 nM; IC50 [2, 8]: 4620 nM; IC50 [3, 10]: 7 nM; Anti-Cancer Activity IC50 (48 hr) RS4; 11 ([3]; Table 2, 48 hr, MTS): + +
8 | Cc1ncsc1-c1ccc([C@H](C)NC(=O)[C@@H]2C[C@@H](O)CN2C(=O)[C@@H](NC(=O)CCCCCCC(=O)N2CCN(CC3(C)CCC(c4ccc(Cl)cc4)=C(CN4CCN(c5ccc(C(=O)NS(=O)(=O)c6ccc(N[C@H](CCN7CCOCC7)CSc7ccccc7)c(S(=O)(=O)C(F)(F)F)c6)cc5)CC4)C3)CC2)C(C)(C)C)cc1 (stereo partly drawn) [PP18319C8] | – | – | – | – | – | 1640 | 94 | 18.7 | IC50 [1, 14]: 17.4 nM
9 | CC1(C)CCC(c2ccc(Cl)cc2)=C(CN2CCN(c3ccc(C(=O)NS(=O)(=O)c4ccc(N[C@H](CCN5CCOCC5)CSc5ccccc5)c(S(=O)(=O)C(F)(F)F)c4)cc3)CC2)C1 [ABT-263, navitoclax, reference compound] | – | 220 | 312 | 1.4 | – | 260 | – | 38 | IC50 [2, 12]: 223 nM; Platelets/MOLT-4 IC50 Fold change ([2]; Table 6): 1
10 | Cc1ncsc1-c1ccc([C@H](C)NC(=O)[C@@H]2C[C@@H](O)CN2C(=O)[C@@H](NC(=O)CCCCCCC(=O)N2CCN(C[C@]3(C)CCC(c4ccc(Cl)cc4)=C(CN4CCN(c5ccc(C(=O)NS(=O)(=O)c6ccc(N[C@H](CCN7CCOCC7)CSc7ccccc7)c(S(=O)(=O)C(F)(F)F)c6)cc5)CC4)C3)CC2)C(C)(C)C)cc1 [PZ753B, reference compound] | – | – | – | – | – | 1050 | 152 | 5.8 | IC50 [1, 14]: 6.9 nM
11 | Cc1ncsc1-c1ccc([C@H](C)NC(=O)[C@@H]2C[C@@H](O)CN2C(=O)[C@@H](NC(=O)CCCCCCC(=O)N2CCN(CC3(C)CCC(c4ccc(Cl)cc4)=C(CN4CCN(c5ccc(C(=O)NS(=O)(=O)c6ccc(N[C@H](CCN7C[C@@H]8C[C@H]7CO8)CSc7ccccc7)c(S(=O)(=O)C(F)(F)F)c6)cc5)CC4)C3)CC2)C(C)(C)C)cc1 (stereo partly drawn) [compound 64] | < 20 | – | – | – | < 20 | – | – | – | IC50 ([1]; Homo sapiens, MOLT-4, Table 6, 48 h, read-out: MOLT-4 48 h IC50): 2.9 nM; IC50 [2, 12]: 884 nM; IC50 ([3]; Homo sapiens, RS4-11, Table 6, 48 h, read-out: RS4 48 h IC50): 4.7 nM
